We go through 24 compounds from US10562912B2 (C&C Research Laboratories, priority 2013, dated 2020).

Holding throughout (assay type): cell-based
The target in one assay is T1, STAT3 (Homo sapiens, UniProt P40763).
T1 construct: plasmid pSTAT3-TA-luc), which contains a stably operating STAT3 promoter; endogenous in cells
Put plainly: STAT3 reporter gene assay (luciferase), LNCaP stable cell line (pSTAT3-TA-luc), IL-6 stimulation. In short, it runs like this:
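Cytotoxicity was run on a duplicate plate with CellTiter-Glo, while the other plate gave luciferase read-outs from lysed LNCaP pSTAT3-TA-luc reporter cells. Cells were treated with graded compound concentrations plus IL-6 (10 ng/mL final) for 24–48 h in 3% DCC-FBS medium. Unstimulated and stimulated wells served as negative and positive controls.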
For orientation: A reporter such as luciferase makes a cellular process visible.

A further assay deals with DU-145. Put plainly: Cell growth inhibition assay, prostate cancer cell line DU-145. As to conditions: Homo sapiens, DU-145 prostate cancer cell line. In short, it runs like this:
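Cells were seeded at 3,000/well (HCT116, DU-145) or 5,000/well (SW626 and the others) and exposed to serial compound dilutions for 72 to 96 h at 37 °C under 5% CO2. Viability was read as CellTiter-Glo luminescence against 0.1% DMSO and cell-free wells.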

A further assay has as its system LNCaP. Put plainly: Cell growth inhibition assay, prostate cancer cell line LNCaP (medium with 10 ng/mL IL-6). The conditions noted are these: Homo sapiens, medium supplemented with 10 ng/mL of IL-6, 10,000 cells/well.

T1 sequence (P40763 whole entry): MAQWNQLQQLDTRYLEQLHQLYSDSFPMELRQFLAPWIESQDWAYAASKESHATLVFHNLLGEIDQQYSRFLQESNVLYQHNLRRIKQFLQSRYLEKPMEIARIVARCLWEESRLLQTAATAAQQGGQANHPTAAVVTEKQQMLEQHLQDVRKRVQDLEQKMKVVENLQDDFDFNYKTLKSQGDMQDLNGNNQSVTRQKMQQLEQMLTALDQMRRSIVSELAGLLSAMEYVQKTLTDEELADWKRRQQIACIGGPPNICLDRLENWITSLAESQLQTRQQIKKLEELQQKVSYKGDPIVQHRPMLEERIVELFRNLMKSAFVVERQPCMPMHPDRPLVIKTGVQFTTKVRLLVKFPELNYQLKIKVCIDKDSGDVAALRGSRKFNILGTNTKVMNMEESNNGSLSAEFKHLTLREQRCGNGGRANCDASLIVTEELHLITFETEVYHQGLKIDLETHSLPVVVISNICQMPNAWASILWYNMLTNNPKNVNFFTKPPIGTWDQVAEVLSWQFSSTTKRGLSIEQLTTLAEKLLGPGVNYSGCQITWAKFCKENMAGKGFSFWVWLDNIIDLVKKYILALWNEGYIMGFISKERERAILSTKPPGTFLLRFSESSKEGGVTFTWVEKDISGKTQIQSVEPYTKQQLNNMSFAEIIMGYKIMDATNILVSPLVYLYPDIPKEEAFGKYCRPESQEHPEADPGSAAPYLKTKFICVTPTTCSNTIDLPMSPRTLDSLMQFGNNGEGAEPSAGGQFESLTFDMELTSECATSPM

One may read the IC50 as the point on the concentration scale where inhibition reaches its midpoint. A low value points to greater potency in that assay. Turning to `CS(=O)(=O)Nc1ccc2sc(C(=O)Nc3cc(Cl)cc(Oc4ccc(OC(F)(F)F)cc4)c3)cc2c1` [Example 454, N-(3-chloro-5-(4-(trifluoromethoxy)phenoxy)phenyl)-5-(methylsulfonamido)benzo[b]thiophene-2-carboxamide], the IC50 against STAT3 was found to be 0.12 µM; in the assay with DU-145, 0.059 µM; in the assay on LNCaP, 0.83 µM.
`CS(=O)(=O)Nc1ccc2sc(C(=O)Nc3cc(Cl)cc(Oc4cccc(C(F)(F)F)c4)c3)cc2c1` [Example 455, N-(3-chloro-5-(3-(trifluoromethyl)phenoxy)phenyl)-5-(methylsulfonamido)benzo[b]thiophene-2-carboxamide]: the results for the IC50 against STAT3, in the assay on DU-145 and in the assay on LNCaP were 0.19 µM, 0.19 µM and 0.22 µM, respectively.
On to `CS(=O)(=O)Nc1ccc2sc(C(=O)Nc3cc(Cl)cc(Oc4cccc(Cl)c4)c3)cc2c1` [Example 456, N-(3-chloro-5-(3-chlorophenoxy)phenyl)-5-(methylsulfonamido)benzo[b]thiophene-2-carboxamide], for which the values for the IC50 on STAT3, in the assay on DU-145 and with LNCaP were 0.19 µM, 0.25 µM and 0.3 µM, respectively.
On the same counts, the results for `COc1cccc(Oc2cc(Cl)cc(NC(=O)c3cc4cc(NS(C)(=O)=O)ccc4s3)c2)c1` [Example 457, N-(3-chloro-5-(3-methoxyphenoxy)phenyl)-5-(methylsulfonamido)benzo[b]thiophene-2-carboxamide] are 0.28 µM, 0.44 µM and 0.37 µM.
The matching figures for `CS(=O)(=O)Nc1ccc2sc(C(=O)Nc3cc(Cl)cc(Oc4cc(Cl)cc(C#N)c4)c3)cc2c1` [Example 458, N-(3-chloro-5-(3-chloro-5-cyanophenoxy)phenyl)-5-(methylsulfonamido)benzo[b]thiophene-2-carboxamide]: 0.25 µM, 0.17 µM and 0.33 µM.
For `CS(=O)(=O)Nc1ccc2sc(C(=O)Nc3cc(Cl)cc(Oc4cccc(C#N)c4)c3)cc2c1` [Example 459, N-(3-chloro-5-(3-cyanophenoxy)phenyl)-5-(methylsulfonamido)benzo[b]thiophene-2-carboxamide], the IC50 at STAT3 turned out to be 0.36 µM; in the assay with DU-145 it was 0.59 µM; with LNCaP it was 0.79 µM.
Take `CS(=O)(=O)Nc1ccc2sc(C(=O)Nc3cc(Cl)cc(Oc4ccc(F)c(F)c4)c3)cc2c1` [Example 460, N-(3-chloro-5-(3,4-difluorophenoxy)phenyl)-5-(methylsulfonamido)benzo[b]thiophene-2-carboxamide]: the figures for the IC50 against STAT3, in the assay with DU-145 and with LNCaP were 0.15 µM, 0.13 µM and 0.23 µM, respectively.
On the same counts, the results for `CS(=O)(=O)Nc1ccc2sc(C(=O)Nc3cc(Cl)cc(Oc4ccc(F)c(Cl)c4)c3)cc2c1` [Example 461, N-(3-chloro-5-(3-chloro-4-fluorophenoxy)phenyl)-5-(methylsulfonamido)benzo[b]thiophene-2-carboxamide] are 0.14 µM, 0.11 µM and 0.24 µM.
On the same counts, the results for `CS(=O)(=O)Nc1ccc2sc(C(=O)Nc3cc(Cl)cc(Oc4ccc(Cl)cc4Cl)c3)cc2c1` [Example 462, N-(3-chloro-5-(2,4-dichlorophenoxy)phenyl)-5-(methylsulfonamido)benzo[b]thiophene-2-carboxamide] are 0.13 µM, 0.13 µM and 0.33 µM.
On the same counts, the results for `CS(=O)(=O)Nc1ccc2sc(C(=O)Nc3cc(Cl)cc(Oc4cc(F)cc(F)c4)c3)cc2c1` [Example 463, N-(3-chloro-5-(3,5-difluorophenoxy)phenyl)-5-(methylsulfonamido)benzo[b]thiophene-2-carboxamide] are 0.19 µM, 0.15 µM and 0.27 µM.
Turning to `CS(=O)(=O)Nc1ccc2sc(C(=O)Nc3cc(Cl)cc(Oc4cc(Cl)cc(Cl)c4)c3)cc2c1` [Example 464, N-(3-chloro-5-(3,5-dichlorophenoxy)phenyl)-5-(methylsulfonamido)benzo[b]thiophene-2-carboxamide], the IC50 amounted to 0.17 µM against STAT3, 0.16 µM in the assay with DU-145 and 0.31 µM in the assay on LNCaP.
Take `CS(=O)(=O)Nc1ccc2sc(C(=O)Nc3cc(Cl)cc(Oc4ccc(C(F)(F)F)cc4)c3)cc2c1` [Example 465, N-(3-chloro-5-(4-(trifluoromethyl)phenoxy)phenyl)-5-(methylsulfonamido)benzo[b]thiophene-2-carboxamide]: the IC50 against STAT3 was found to be 0.12 µM; with DU-145, 0.048 µM; in the assay on LNCaP, 0.063 µM.
The matching figures for `CS(=O)(=O)Nc1ccc2sc(C(=O)Nc3cc(Cl)cc(Oc4ccc(Cl)c(F)c4)c3)cc2c1` [Example 466, N-(3-chloro-5-(4-chloro-3-fluorophenoxy)phenyl)-5-(methylsulfonamido)benzo[b]thiophene-2-carboxamide]: 0.12 µM, 0.063 µM and 0.079 µM.
On the same counts, the results for `CS(=O)(=O)Nc1ccc2sc(C(=O)Nc3cc(Cl)cc(Oc4cc(Cl)cc(OC(F)(F)F)c4)c3)cc2c1` [Example 467, N-(3-chloro-5-(3-chloro-5-(trifluoromethoxy)phenoxy)phenyl)-5-(methylsulfonamido)benzo[b]thiophene-2-carboxamide] are 0.22 µM, 0.048 µM and 0.039 µM.
On the same counts, the results for `CS(=O)(=O)Nc1ccc2sc(C(=O)Nc3cc(Cl)cc(Oc4ccc(Cl)c(OC(F)(F)F)c4)c3)cc2c1` [Example 468, N-(3-chloro-5-(4-chloro-3-(trifluoromethoxy)phenoxy)phenyl)-5-(methylsulfonamido)benzo[b]thiophene-2-carboxamide] are 0.17 µM, 0.028 µM and 0.04 µM.
For `CS(=O)(=O)Nc1ccc2sc(C(=O)Nc3cc(Cl)cc(Oc4cc(F)cc(Cl)c4)c3)cc2c1` [Example 469, N-(3-chloro-5-(3-chloro-5-fluorophenoxy)phenyl)-5-(methylsulfonamido)benzo[b]thiophene-2-carboxamide], the values for the IC50 at STAT3, in the assay with DU-145 and in the assay on LNCaP were 0.36 µM, 0.086 µM and 0.12 µM, respectively.
The matching figures for `CS(=O)(=O)Nc1ccc2sc(C(=O)Nc3cc(Cl)cc(Oc4ccc(F)c(OC(F)(F)F)c4)c3)cc2c1` [Example 470, N-(3-chloro-5-(4-fluoro-3-(trifluoromethoxy)phenoxy)phenyl)-5-(methylsulfonamido)benzo[b]thiophene-2-carboxamide]: 0.32 µM, 0.043 µM and 0.067 µM.
The matching figures for `CS(=O)(=O)Nc1cc2cc(C(=O)Nc3cc(Cl)cc(Oc4nccs4)c3)sc2cc1Cl` [Example 471, 6-chloro-N-(3-chloro-5-(thiazol-2-yloxy)phenyl)-5-(methylsulfonamido)benzo[b]thiophene-2-carboxamide]: 0.075 µM, 0.049 µM and 0.11 µM.
On the same counts, the results for `CS(=O)(=O)Nc1cc2cc(C(=O)Nc3cc(Cl)cc(Oc4cncs4)c3)sc2cc1Cl` [Example 472, 6-chloro-N-(3-chloro-5-(thiazol-5-yloxy)phenyl)-5-(methylsulfonamido)benzo[b]thiophene-2-carboxamide] are 0.1 µM, 0.13 µM and 0.37 µM.
In the case of `CS(=O)(=O)Nc1cc2cc(C(=O)Nc3cc(Cl)cc(Oc4ccc(Cl)s4)c3)sc2cc1Cl` [Example 473, 6-chloro-N-(3-chloro-5-((5-chlorothiophen-2-yl)oxy)phenyl)-5-(methylsulfonamido)benzo[b]thiophene-2-carboxamide], the IC50 was 0.1 µM on STAT3, 0.015 µM with DU-145 and 0.015 µM with LNCaP.
As to `COc1cc(Cl)cc(Oc2cc(Cl)cc(NC(=O)c3cc4cc(NS(C)(=O)=O)c(Cl)cc4s3)c2)c1` [Example 474, 6-chloro-N-(3-chloro-5-(3-chloro-5-methoxyphenoxy)phenyl)-5-(methylsulfonamido)benzo[b]thiophene-2-carboxamide], the IC50 against STAT3 was 0.048 µM; with DU-145, 0.022 µM; in the assay on LNCaP it was 0.059 µM.
The matching figures for `CS(=O)(=O)Nc1cc2cc(C(=O)Nc3cc(Cl)cc(Oc4cc(O)cc(Cl)c4)c3)sc2cc1Cl` [Example 475, 6-chloro-N-(3-chloro-5-(3-chloro-5-hydroxyphenoxy)phenyl)-5-(methylsulfonamido)benzo[b]thiophene-2-carboxamide]: > 10 µM, > 1.1 µM and > 1.1 µM.
The matching figures for `CS(=O)(=O)Nc1cc2cc(C(=O)Nc3cc(Cl)cc(Oc4ccc(F)c(Cl)c4)c3)sc2cc1Cl` [Example 476, 6-chloro-N-(3-chloro-5-(3-chloro-4-fluorophenoxy)phenyl)-5-(methylsulfonamido)benzo[b]thiophene-2-carboxamide]: 0.021 µM, 0.005 µM and 0.022 µM.
The matching figures for `CS(=O)(=O)Nc1cc2cc(C(=O)Nc3cc(Cl)cc(Oc4ccc(Cl)c(F)c4)c3)sc2cc1Cl` [Example 477, 6-chloro-N-(3-chloro-5-(4-chloro-3-fluorophenoxy)phenyl)-5-(methylsulfonamido)benzo[b]thiophene-2-carboxamide]: 0.025 µM, 0.01 µM and 0.013 µM.
